Measured values from ChEMBL document CHEMBL1137334 (J Med Chem, 2006).
Values after ≈ are worked out from the molar mass of the structure shown.

Key:
[1] = test system: A549; experiment: Inhibition of A549 cell migration by microdroplet migration assay; assay type: functional, cell-based; conditions: Homo sapiens
[2] = test system: K562; experiment: Antiproliferative activity against huamn K562 cell line; assay type: functional, cell-based; conditions: Homo sapiens
[3] = Dissociation constant, pKa of the basic side chain of compound; assay type: physicochemical
[4] = Lipophilicity, log D at pH 7.4; assay type: physicochemical; conditions: buffer
[5] = Aqueous solubility at pH 7.0; assay type: physicochemical
[6] = Percent of unbound ligand in human plasma; assay type: ADME, organism-based
[7] = Percent of unbound ligand in rat plasma; assay type: ADME, organism-based
[8] = Percent of unbound ligand in dog plasma; assay type: ADME, organism-based, Canis lupus familiaris
[9] = molecular target: Tyrosine-protein kinase CSK (Homo sapiens, UniProt P41240); experiment: Inhibition of recombinant CSK by ELISA
Tyrosine-protein kinase CSK, sequence (P41240 whole entry): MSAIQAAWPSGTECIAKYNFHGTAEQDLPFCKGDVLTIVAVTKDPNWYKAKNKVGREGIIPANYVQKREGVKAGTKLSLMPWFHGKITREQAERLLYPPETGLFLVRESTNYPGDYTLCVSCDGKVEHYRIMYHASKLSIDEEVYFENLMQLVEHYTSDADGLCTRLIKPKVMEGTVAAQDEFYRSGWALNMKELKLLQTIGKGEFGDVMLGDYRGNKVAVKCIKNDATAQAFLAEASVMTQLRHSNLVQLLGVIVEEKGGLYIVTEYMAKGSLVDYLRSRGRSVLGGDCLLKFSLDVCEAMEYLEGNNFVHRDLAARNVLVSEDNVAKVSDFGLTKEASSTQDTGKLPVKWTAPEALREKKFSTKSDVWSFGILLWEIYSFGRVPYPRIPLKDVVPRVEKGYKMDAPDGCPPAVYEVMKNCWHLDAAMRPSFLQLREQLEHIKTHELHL

[10] = molecular target: Vascular endothelial growth factor receptor 1 (Homo sapiens, UniProt P17948); experiment: Inhibition of recombinant FLT1 by ELISA
Vascular endothelial growth factor receptor 1, sequence (P17948 whole entry): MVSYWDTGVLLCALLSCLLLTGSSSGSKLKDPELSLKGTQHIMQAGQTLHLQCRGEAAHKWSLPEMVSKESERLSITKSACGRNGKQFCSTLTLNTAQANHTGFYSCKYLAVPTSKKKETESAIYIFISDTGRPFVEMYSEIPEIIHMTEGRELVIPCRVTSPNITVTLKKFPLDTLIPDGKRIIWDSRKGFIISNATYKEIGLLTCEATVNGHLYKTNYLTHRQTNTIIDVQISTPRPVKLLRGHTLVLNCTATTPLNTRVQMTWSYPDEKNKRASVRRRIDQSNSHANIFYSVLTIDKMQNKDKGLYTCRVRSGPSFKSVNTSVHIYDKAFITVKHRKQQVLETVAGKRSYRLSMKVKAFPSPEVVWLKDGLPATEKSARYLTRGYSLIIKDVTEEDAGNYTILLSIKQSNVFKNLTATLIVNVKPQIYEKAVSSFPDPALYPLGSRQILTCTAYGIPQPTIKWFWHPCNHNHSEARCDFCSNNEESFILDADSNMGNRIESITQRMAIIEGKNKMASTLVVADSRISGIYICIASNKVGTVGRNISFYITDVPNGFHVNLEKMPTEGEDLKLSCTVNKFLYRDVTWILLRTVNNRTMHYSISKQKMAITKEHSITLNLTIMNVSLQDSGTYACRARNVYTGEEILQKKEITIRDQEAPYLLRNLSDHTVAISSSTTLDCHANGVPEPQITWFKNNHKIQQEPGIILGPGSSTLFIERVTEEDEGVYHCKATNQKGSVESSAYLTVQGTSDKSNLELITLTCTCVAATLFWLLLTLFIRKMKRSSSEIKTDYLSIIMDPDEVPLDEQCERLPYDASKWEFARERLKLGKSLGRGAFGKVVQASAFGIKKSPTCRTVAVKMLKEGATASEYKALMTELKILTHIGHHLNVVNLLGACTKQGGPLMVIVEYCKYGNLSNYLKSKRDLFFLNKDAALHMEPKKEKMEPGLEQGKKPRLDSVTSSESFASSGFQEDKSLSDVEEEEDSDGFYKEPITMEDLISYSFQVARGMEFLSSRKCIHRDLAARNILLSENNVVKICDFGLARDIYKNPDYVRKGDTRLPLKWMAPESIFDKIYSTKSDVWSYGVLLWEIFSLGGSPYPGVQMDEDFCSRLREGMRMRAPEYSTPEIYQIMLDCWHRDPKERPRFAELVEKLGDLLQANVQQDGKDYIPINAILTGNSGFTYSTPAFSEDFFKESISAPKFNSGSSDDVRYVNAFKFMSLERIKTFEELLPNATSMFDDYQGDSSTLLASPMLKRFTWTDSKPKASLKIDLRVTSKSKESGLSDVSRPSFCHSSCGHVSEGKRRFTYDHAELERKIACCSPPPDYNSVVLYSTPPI

[11] = molecular target: Vascular endothelial growth factor receptor 3 (Homo sapiens, UniProt P35916); experiment: Inhibition of FLT4 by ELISA
Vascular endothelial growth factor receptor 3, sequence (P35916 whole entry): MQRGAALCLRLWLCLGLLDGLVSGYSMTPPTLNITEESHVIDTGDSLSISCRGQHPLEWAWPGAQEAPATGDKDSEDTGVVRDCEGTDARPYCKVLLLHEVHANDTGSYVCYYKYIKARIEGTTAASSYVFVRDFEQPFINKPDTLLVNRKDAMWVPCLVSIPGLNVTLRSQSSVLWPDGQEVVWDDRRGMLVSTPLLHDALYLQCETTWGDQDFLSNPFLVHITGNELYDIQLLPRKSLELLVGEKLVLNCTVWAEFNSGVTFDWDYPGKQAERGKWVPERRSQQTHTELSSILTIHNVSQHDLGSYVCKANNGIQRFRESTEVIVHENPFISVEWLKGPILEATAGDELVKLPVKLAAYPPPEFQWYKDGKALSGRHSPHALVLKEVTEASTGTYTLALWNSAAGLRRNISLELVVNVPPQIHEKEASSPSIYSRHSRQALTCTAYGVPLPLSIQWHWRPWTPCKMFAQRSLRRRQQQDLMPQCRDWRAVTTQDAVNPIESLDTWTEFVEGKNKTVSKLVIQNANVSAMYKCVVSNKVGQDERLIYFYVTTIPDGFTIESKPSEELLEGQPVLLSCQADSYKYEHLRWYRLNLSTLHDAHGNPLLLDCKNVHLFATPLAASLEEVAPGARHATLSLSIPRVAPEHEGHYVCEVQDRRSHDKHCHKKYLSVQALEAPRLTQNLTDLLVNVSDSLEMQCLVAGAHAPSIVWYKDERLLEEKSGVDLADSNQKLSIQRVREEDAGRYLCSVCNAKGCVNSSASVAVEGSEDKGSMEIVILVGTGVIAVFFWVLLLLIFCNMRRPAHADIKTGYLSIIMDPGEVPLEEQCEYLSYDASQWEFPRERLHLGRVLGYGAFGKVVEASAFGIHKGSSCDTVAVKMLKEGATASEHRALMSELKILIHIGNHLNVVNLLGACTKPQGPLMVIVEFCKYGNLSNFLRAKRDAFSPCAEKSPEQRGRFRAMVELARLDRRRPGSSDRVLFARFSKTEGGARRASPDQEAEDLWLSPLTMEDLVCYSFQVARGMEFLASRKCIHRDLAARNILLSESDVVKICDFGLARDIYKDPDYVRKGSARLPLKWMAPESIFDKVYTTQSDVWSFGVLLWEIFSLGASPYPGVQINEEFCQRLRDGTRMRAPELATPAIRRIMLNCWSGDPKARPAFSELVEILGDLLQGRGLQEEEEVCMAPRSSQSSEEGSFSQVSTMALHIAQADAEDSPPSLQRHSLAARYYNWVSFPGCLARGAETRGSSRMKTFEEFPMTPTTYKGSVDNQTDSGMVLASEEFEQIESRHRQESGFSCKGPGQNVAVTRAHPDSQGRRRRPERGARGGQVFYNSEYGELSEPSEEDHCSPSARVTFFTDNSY

[12] = molecular target: Platelet-derived growth factor receptor alpha (Homo sapiens, UniProt P16234); experiment: Inhibition of recombinant PDGFRalpha by ELISA
Platelet-derived growth factor receptor alpha, sequence (P16234 whole entry): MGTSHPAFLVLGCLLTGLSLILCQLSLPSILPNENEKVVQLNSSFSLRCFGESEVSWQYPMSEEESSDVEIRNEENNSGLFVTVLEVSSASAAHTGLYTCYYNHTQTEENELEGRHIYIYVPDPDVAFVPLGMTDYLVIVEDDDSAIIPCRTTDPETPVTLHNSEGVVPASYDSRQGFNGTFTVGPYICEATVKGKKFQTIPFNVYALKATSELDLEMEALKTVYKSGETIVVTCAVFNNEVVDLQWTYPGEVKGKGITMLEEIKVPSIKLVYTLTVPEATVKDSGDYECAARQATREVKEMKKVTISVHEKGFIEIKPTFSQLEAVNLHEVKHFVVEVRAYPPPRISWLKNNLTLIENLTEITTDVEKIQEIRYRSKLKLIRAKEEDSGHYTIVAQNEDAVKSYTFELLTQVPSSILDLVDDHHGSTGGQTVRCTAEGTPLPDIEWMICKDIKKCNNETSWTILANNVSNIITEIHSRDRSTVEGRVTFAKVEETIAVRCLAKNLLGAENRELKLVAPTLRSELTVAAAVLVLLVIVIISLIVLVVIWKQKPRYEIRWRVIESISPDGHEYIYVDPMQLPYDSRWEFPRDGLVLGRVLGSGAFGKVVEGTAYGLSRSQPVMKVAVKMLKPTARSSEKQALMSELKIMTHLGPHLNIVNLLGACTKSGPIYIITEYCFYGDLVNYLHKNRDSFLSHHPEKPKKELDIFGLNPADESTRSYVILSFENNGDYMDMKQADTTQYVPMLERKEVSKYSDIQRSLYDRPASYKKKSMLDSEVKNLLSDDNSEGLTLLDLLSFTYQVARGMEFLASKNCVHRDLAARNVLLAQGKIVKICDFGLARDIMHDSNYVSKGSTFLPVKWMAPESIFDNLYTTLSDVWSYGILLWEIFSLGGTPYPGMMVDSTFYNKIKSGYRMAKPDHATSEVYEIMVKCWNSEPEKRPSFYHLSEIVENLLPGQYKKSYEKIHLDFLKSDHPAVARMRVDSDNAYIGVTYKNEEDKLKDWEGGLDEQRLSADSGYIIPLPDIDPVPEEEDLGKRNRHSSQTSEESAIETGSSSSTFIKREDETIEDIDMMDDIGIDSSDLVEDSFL

[13] = molecular target: Fibroblast growth factor receptor 1 (Homo sapiens, UniProt P11362); experiment: Inhibition of recombinant FGFR1 by ELISA
Fibroblast growth factor receptor 1, sequence (P11362 whole entry): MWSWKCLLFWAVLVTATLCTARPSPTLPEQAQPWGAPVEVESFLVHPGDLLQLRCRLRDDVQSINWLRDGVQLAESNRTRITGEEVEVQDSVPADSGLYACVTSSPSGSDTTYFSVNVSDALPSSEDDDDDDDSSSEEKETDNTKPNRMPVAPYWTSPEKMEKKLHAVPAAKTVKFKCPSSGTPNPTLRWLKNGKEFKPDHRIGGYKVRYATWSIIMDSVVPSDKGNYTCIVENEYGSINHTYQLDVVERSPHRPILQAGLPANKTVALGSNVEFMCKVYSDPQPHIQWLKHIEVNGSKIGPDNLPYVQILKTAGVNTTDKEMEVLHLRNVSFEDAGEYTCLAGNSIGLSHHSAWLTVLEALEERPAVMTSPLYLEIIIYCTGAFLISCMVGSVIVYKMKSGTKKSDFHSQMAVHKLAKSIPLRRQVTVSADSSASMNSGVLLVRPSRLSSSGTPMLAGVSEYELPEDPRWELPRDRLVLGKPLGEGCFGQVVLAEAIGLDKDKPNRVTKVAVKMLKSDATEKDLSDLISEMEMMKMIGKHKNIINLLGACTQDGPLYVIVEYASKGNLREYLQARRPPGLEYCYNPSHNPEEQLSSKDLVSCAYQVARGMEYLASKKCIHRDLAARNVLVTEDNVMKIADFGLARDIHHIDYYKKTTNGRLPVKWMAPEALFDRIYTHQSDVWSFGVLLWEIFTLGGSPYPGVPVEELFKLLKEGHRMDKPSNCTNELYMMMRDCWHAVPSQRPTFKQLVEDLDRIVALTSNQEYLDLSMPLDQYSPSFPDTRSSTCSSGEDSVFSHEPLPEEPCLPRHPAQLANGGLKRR

[14] = molecular target: Aurora kinase B (Homo sapiens, UniProt Q96GD4); experiment: Inhibition of recombinant Aurora B by ELISA
[15] = molecular target: Cyclin-dependent kinase 2 (Homo sapiens, UniProt P24941); experiment: Inhibition of CDK2 by SPA
[16] = molecular target: Dual specificity mitogen-activated protein kinase kinase; MEK1/2 (Homo sapiens, UniProt P36507+Q02750); experiment: Inhibition of MAPKK; assay type: protein assay
[17] = molecular target: Glycogen synthase kinase-3 beta (Homo sapiens, UniProt P49841); experiment: Inhibition of GSK3-beta
[18] = Inhibition of Chk; set-up: species or system Homo sapiens
[19] = molecular target: c-Jun N-terminal kinase, JNK (Homo sapiens, UniProt P45983+P53779+P45984); experiment: Inhibition of JNK; assay type: protein assay
[20] = molecular target: 3-phosphoinositide-dependent protein kinase 1 (Homo sapiens, UniProt O15530); experiment: Inhibition of PDK
[21] = molecular target: cAMP-dependent protein kinase (PKA) (Homo sapiens, UniProt P22694+P17612+P22612); experiment: Inhibition of PKA; assay type: protein assay
[22] = Inhibition of PI3K; set-up: species or system Homo sapiens
[23] = AUC (0-24h) in mouse at 20 mg/kg, po; assay type: ADME, organism-based; set-up: time < 24 hr, dose 20 mg/kg, route oral; conditions: plasma
[24] = (§1) Half life in rat at 25 mg/kg, po and 2 mg/kg, iv; assay type: ADME, organism-based; conditions: in vivo
[25] = as §1; assay type: ADME, organism-based; conditions: in vivo; remark: listed apart in the source
[26] = Half life in male dog; assay type: ADME, organism-based, Canis lupus familiaris; conditions: male, in vivo
[27] = Volume of distribution in male rat at 25 mg/kg, po and 2 mg/kg, iv; assay type: ADME, organism-based; conditions: in vivo, read-out: Vdss
[28] = Volume of distribution in female rat at 25 mg/kg, po and 2 mg/kg, iv; assay type: ADME, organism-based; conditions: in vivo, read-out: Vdss
[29] = Volume of distribution in male dog; assay type: ADME, organism-based, Canis lupus familiaris; conditions: male, in vivo, read-out: Vdss
[30] = Clearance in male rat at 25 mg/kg, po and 2 mg/kg, iv; assay type: ADME, organism-based; conditions: in vivo
[31] = molecular target: Vascular endothelial growth factor receptor 2 (Homo sapiens, UniProt P35968); experiment: Inhibition of KDR
[32] = Clearance in female rat at 25 mg/kg, po and 2 mg/kg, iv; assay type: ADME, organism-based; conditions: in vivo
[33] = Clearance in male dog; assay type: ADME, organism-based, Canis lupus familiaris; conditions: in vivo
[34] = Bioavailability in male rat at 25 mg/kg, po and 2 mg/kg, iv; assay type: ADME, organism-based; conditions: in vivo
[35] = Bioavailability in female rat at 25 mg/kg, po and 2 mg/kg, iv; assay type: ADME, organism-based; conditions: in vivo
[36] = Bioavailability in male dog; assay type: ADME, organism-based, Canis lupus familiaris; conditions: in vivo
[37] = Terminal half life in po dosed human; assay type: ADME, organism-based; conditions: in vivo, read-out: beta t1/2 (converted)
[38] = test system: NIH3T3; experiment: Antiproliferative activity against NIH 3T3 cells xenografted in athymic rat measured as inhibition of tumor volume at 6 mg/kg/day after 18 days; assay type: functional; conditions: NIH3T3, 432 h
[39] = test system: HUVEC; experiment: Inhibition of VEGF-stimulated HUVEC cell growth; assay type: functional, cell-based; conditions: Homo sapiens
[40] = test system: HUVEC; experiment: Inhibition of FGF-stimulated HUVEC cell growth; assay type: functional, cell-based; conditions: Homo sapiens
[41] = test system: Calu-6; experiment: Inhibition of paxillin phosphorylation in Calu-6 xenograft tumor model at 20 mg/kg/day, po; assay type: functional; conditions: Homo sapiens
[42] = test system: A549; experiment: Inhibition of paxillin phosphorylation in A549 cells by Western blotting at 1 uM; assay type: functional; conditions: Homo sapiens
[43] = test system: Calu-6; experiment: Inhibition of FAK phosphorylation in Calu-6 xenograft tumor model at 20 mg/kg/day, po; assay type: functional; conditions: Homo sapiens
[44] = Permeability from apical to basolateral side of NIH 3T3 cell; assay type: ADME, cell-based, NIH3T3; conditions: mouse, not told; read-out: permeability

## CN1CCN(CCOc2cc(OC3CCOCC3)c3c(Nc4c(Cl)ccc5c4OCO5)ncnc3c2)CC1 [SARACATINIB]
[1]
  IC50: 0.14 µM
[2]
  IC50: 0.22 µM
[3]
  pKa: 7.98
[4]
  logD: 2.9
[5]
  solubility: 240 µM (≈ 130 µg/mL)
[6]
  fraction unbound: 0.09
[7]
  fraction unbound: 0.13
[8]
  fraction unbound: 0.14
[9]
  IC50: 0.84 µM
[10]
  IC50: > 100 µM
[11]
  IC50: > 10 µM
[12]
  IC50: 10 µM
[13]
  IC50: > 10 µM
[14]
  IC50: > 10 µM
[15]
  IC50: 10 µM
[16]
  IC50: 14 µM
[17]
  IC50: > 10 µM
[18]
  IC50: > 10 µM
[19]
  IC50: > 10 µM
[20]
  IC50: > 10 µM
[21]
  IC50: > 10 µM
[22]
  IC50: > 10 µM
[23]
  AUC(0-t) at 24 h: 12000 ng·h/mL
[24]
  half-life: 5 h
[25]
  half-life: 5 h
[26]
  half-life: 7 h
[27]
  Vd: 10 L/kg
[28]
  Vd: 10 L/kg
[29]
  Vd: 11.6 L/kg
[30]
  clearance: 20 mL/min/kg
[31]
  IC50: 20.9 µM
[32]
  clearance: 16.7 mL/min/kg
[33]
  clearance: 11.7 mL/min/kg
[34]
  bioavailability: 79%
[35]
  bioavailability: 92%
[36]
  bioavailability: > 50%
[37]
  half-life: 40 h
[38]
  inhibition in vivo at 6 mg/kg/day: > 95%
[39]
  IC50: > 5 µM
[40]
  IC50: > 5 µM
[41]
  inhibition in vivo at 20 mg/kg/day: > 80%
[42]
  inhibition at 1 µM: 70%
[43]
  inhibition in vivo at 20 mg/kg/day: > 80%
[44]
  Papp A→B: > 30 ×10⁻⁶ cm/s
